# Test system: CMP-D-C3 (C3, ΔP1a) (RNA, riboswitch) GGAGCGUUACGUCCGCCCACGGCUCUUUAAAAACAAAAGGA
# Assay: ITC
# Conditions: 100 mM K+, 20 mM Mg2+; 50 mM K-MOPS pH 7.5, 25 °C
smiles,measurement,value
NC(=O)c1ccc[n+]([C@@H]2O[C@H](COP(=O)(O)O)[C@@H](O)[C@H]2O)c1,Kd,18.3 ± 1.2 µM

# — publication PMC9841397 (2023)
